Assay results from ChEMBL document CHEMBL1159013, “Additional bioactive compounds and trilobacin, a novel highly cytotoxic acetogenin, from the bark of Asimina triloba” (J Nat Prod, 1992).
In brackets after ≈: the same amount, converted by molar mass.

Tests used:
[1] = Toxicity against brine shrimp larvae; format: organism-based; details: artemia, in vivo
A549 [2] = assay: Cytotoxicity against human A549 cells after 7 days; format: functional; details: for EC50: Homo sapiens, A549, 168 h, read-out: ED50 (the source's name)
HT-29 [3] = assay: Cytotoxicity against human HT-29 cells after 7 days; format: functional; details: for EC50: Homo sapiens, HT-29, 168 h, read-out: ED50 (the source's name)
MCF7 = assay: Cytotoxicity against human MCF7 cells after 7 days; format: functional; details: MCF7, 168 h, read-out: ED50 (the source's name)
M19-MEL = assay: Growth inhibition of human M19-MEL cells after 3 days; format: functional; details: 72 h
SF-539 = assay: Growth inhibition of human SF539 cells after 3 days; format: functional; details: SF-539, 72 h
MOLT-4 = assay: Growth inhibition of human MOLT4 cells after 3 days; format: functional; details: MOLT-4, 72 h
CAKI-1 = assay: Growth inhibition of human Caki1 cells after 3 days; format: functional; details: CAKI-1, 72 h
786-0 = assay: Growth inhibition of human 786-0 cells after 3 days; format: functional; details: 786-0, 72 h
NCI-H460 = assay: Growth inhibition of human NCI-H460 cells after 3 days; format: functional; details: NCI-H460, 72 h
SNB-78 = assay: Growth inhibition of human SNB78 cells after 3 days; format: functional; details: SNB-78, 72 h
A498 = assay: Growth inhibition of human A498 cells after 3 days; format: functional; details: A498, 72 h
HOP-62 = assay: Growth inhibition of human HOP62 cells after 3 days; format: functional; details: HOP-62, 72 h
[4] = Growth inhibition of human LXFL529 cells after 3 days; format: functional; details: LXFL 529, 72 h
OVCAR-5 = assay: Growth inhibition of human OVCAR5 cells after 3 days; format: functional; details: OVCAR-5, 72 h
COLO 205 = assay: Growth inhibition of human COLO205 cells after 3 days; format: functional; details: COLO 205, 72 h
OVCAR-3 = assay: Growth inhibition of human OVCAR-3 cells after 3 days; format: functional; details: OVCAR-3, 72 h
DMS-273 = assay: Growth inhibition of human DMS273 cells after 3 days; format: functional; details: DMS-273, 72 h
HOP-92 = assay: Growth inhibition of human HOP92 cells after 3 days; format: functional; details: HOP-92, 72 h
NCI-H322M = assay: Growth inhibition of human NCI-H322M cells after 3 days; format: functional; details: 72 h
SN12C = assay: Growth inhibition of human SN12C cells after 3 days; format: functional; details: 72 h
[5] = Growth inhibition of human RXF631 cells after 3 days; format: functional; details: RXF 631, 72 h
SK-MEL-2 = assay: Growth inhibition of human SK-MEL-2 cells after 3 days; format: functional; details: SK-MEL-2, 72 h
UACC-62 = assay: Growth inhibition of human UACC62 cells after 3 days; format: functional; details: UACC-62, 72 h
Malme-3M = assay: Growth inhibition of human MALME-3M cells after 3 days; format: functional; details: 72 h
SNB-75 = assay: Growth inhibition of human SNB75 cells after 3 days; format: functional; details: SNB-75, 72 h
IGROV-1 = assay: Growth inhibition of human IGROV1 cells after 3 days; format: functional; details: IGROV-1, 72 h
CCRF-CEM = assay: Growth inhibition of human CCRF-CEM cells after 3 days; format: functional; details: 72 h
U-251 = assay: Growth inhibition of human U251 cells after 3 days; format: functional; details: U-251, 72 h
XF498 = assay: Growth inhibition of human XF498 cells after 3 days; format: functional; details: XF498, 72 h
SK-MEL-28 = assay: Growth inhibition of human SK-MEL-28 cells after 3 days; format: functional; details: SK-MEL-28, 72 h
LOX IMVI = assay: Growth inhibition of human LOXIMVI cells after 3 days; format: functional; details: 72 h
HT-29 [6] = assay: Growth inhibition of human HT-29 cells after 3 days; format: functional; details: HT-29, 72 h
HCC 2998 = assay: Growth inhibition of human HCC2998 cells after 3 days; format: functional; details: HCC 2998, 72 h
SW-620 = assay: Growth inhibition of human SW620 cells after 3 days; format: functional; details: SW-620, 72 h
TK-10 = assay: Growth inhibition of human TK10 cells after 3 days; format: functional; details: TK-10, 72 h
SR = assay: Growth inhibition of human SR cells after 3 days; format: functional; details: 72 h
SF-268 = assay: Growth inhibition of human SF268 cells after 3 days; format: functional; details: SF-268, 72 h
SK-OV-3 = assay: Growth inhibition of human SKOV3 cells after 3 days; format: functional; details: SK-OV-3, 72 h
M14 = assay: Growth inhibition of human M14 cells after 3 days; format: functional; details: M14, 72 h
EKVX = assay: Growth inhibition of human EKVX cells after 3 days; format: functional; details: 72 h
A549 [7] = assay: Growth inhibition of human A549 cells after 3 days; format: functional; details: A549, 72 h
DLD-1 = assay: Growth inhibition of human DLD1 cells after 3 days; format: functional; details: DLD-1, 72 h
OVCAR-8 = assay: Growth inhibition of human OVCAR8 cells after 3 days; format: functional; details: OVCAR-8, 72 h
KM-20L2 = assay: Growth inhibition of human KM20L2 cells after 3 days; format: functional; details: KM-20L2, 72 h

Compound: O=C(/C=C/c1ccc(O)cc1)NCCc1ccc(O)cc1 [N-P-COUMAROYL TYRAMINE]
- LC50 [1]: 6700 ng/mL (≈ 23600 nM)
- EC50 (A549 [2]): 3240 ng/mL (≈ 11400 nM)
- EC50 (HT-29 [3]): 674 ng/mL (≈ 2380 nM)
- EC50 (MCF7): 716 ng/mL (≈ 2530 nM)

Compound: COc1cc(/C=C/C(=O)NCCc2ccc(O)cc2)ccc1O [N-TRANS-FERULOYL TYRAMINE]
- LC50 [1]: 6700 ng/mL (≈ 21400 nM)
- EC50 (A549 [2]): 13400 ng/mL (≈ 42600 nM)
- EC50 (HT-29 [3]): 23600 ng/mL (≈ 75300 nM)
- EC50 (MCF7): 4760 ng/mL (≈ 15200 nM)

Compound: COc1cc([C@H]2OC[C@H]3[C@@H]2CO[C@@H]3c2cc(OC)c(O)c(OC)c2)cc(OC)c1O [SYRINGARESINOL]
- LC50 [1]: 13600 ng/mL (≈ 32500 nM)
- EC50 (A549 [2]): 14900 ng/mL (≈ 35600 nM)
- EC50 (HT-29 [3]): 15500 ng/mL (≈ 37000 nM)
- EC50 (MCF7): 3690 ng/mL (≈ 8820 nM)

Compound: CCCCCCCCCC[C@@H](O)[C@H]1CC[C@@H]([C@H]2CC[C@H]([C@H](O)CCCCCCCCCC[C@@H](O)CC3=C[C@H](C)OC3=O)O2)O1 [TRILOBACIN]
- GI50 (M19-MEL): 0.00263 ng/mL (≈ 0.00422 nM)
- LC50 [1]: 8.7 ng/mL (≈ 14 nM)
- GI50 (SF-539): 0.00138 ng/mL (≈ 0.00222 nM)
- GI50 (MOLT-4): 0.00116 ng/mL (≈ 0.00186 nM)
- GI50 (CAKI-1): 0.00883 ng/mL (≈ 0.0142 nM)
- GI50 (786-0): 0.0022 ng/mL (≈ 0.00353 nM)
- ED50 (A549 [2]): 8.02 ×10⁻⁴ ug/ml
- GI50 (NCI-H460): 0.00293 ng/mL (≈ 0.0047 nM)
- GI50 (SNB-78): 2.05 µM
- GI50 (A498): 0.00686 ng/mL (≈ 0.011 nM)
- GI50 (HOP-62): 0.00234 ng/mL (≈ 0.00376 nM)
- GI50 [4]: 0.00217 ng/mL (≈ 0.00348 nM)
- GI50 (OVCAR-5): 4.33 µM
- GI50 (COLO 205): 0.00349 ng/mL (≈ 0.0056 nM)
- GI50 (OVCAR-3): 0.00109 ng/mL (≈ 0.00175 nM)
- GI50 (DMS-273): 0.00177 ng/mL (≈ 0.00284 nM)
- GI50 (HOP-92): 0.00276 ng/mL (≈ 0.00443 nM)
- GI50 (NCI-H322M): 4.06 µM
- GI50 (SN12C): 1.64 µM
- GI50 [5]: 1.8 µM
- GI50 (SK-MEL-2): 0.00228 ng/mL (≈ 0.00366 nM)
- ED50 (HT-29 [3]): <1 ×10⁻¹⁵ ug/ml
- GI50 (UACC-62): 2.67 µM
- GI50 (Malme-3M): 0.00144 ng/mL (≈ 0.00231 nM)
- GI50 (SNB-75): 0.00319 ng/mL (≈ 0.00512 nM)
- GI50 (IGROV-1): 0.00481 ng/mL (≈ 0.00772 nM)
- GI50 (CCRF-CEM): 0.0017 ng/mL (≈ 0.00273 nM)
- GI50 (U-251): 4.33 µM
- GI50 (XF498): 0.00203 ng/mL (≈ 0.00326 nM)
- GI50 (SK-MEL-28): 0.00201 ng/mL (≈ 0.00323 nM)
- GI50 (LOX IMVI): 0.0012 ng/mL (≈ 0.00193 nM)
- GI50 (HT-29 [6]): 0.00216 ng/mL (≈ 0.00347 nM)
- GI50 (HCC 2998): 0.00292 ng/mL (≈ 0.00469 nM)
- GI50 (SW-620): 2.64 µM
- GI50 (TK-10): 7 µM
- GI50 (SR): 1.09 µM
- GI50 (SF-268): 1.7 µM
- GI50 (SK-OV-3): 8.2 µM
- GI50 (M14): 0.0104 ng/mL (≈ 0.0167 nM)
- GI50 (EKVX): 0.002 ng/mL (≈ 0.00321 nM)
- GI50 (A549 [7]): 0.00164 ng/mL (≈ 0.00263 nM)
- GI50 (DLD-1): 0.0027 ng/mL (≈ 0.00433 nM)
- GI50 (OVCAR-8): 0.00293 ng/mL (≈ 0.0047 nM)
- GI50 (KM-20L2): 0.00375 ng/mL (≈ 0.00602 nM)
- EC50 (MCF7): 329 ng/mL (≈ 528 nM)
